# “And” between values parts separate entries of the source, which are not always exact repeats. Equal values may be shown once.
# Tests used:
# keratin = assay: Binding of Alexa Fluor 647-marked keratin to peptides attached to glass, microarray scanner intensity (Example 4); parameters: species or system human; settings: peptide 15 fmol/mm2 on glass; keratin 1 μg/mL, 2 hours at 37° C.; three replicas
# Method: In order to assess the interactions between the keratin and some peptides, a keratin solution was prepared. This procedure was performed by immersing African hair, acquired from the International Hair Importers and Products, Inc. (New York), in a solution containing 8 M urea, 0.2 M sodium dodecyl sulfate and 0.5 M sodium bisulfate. The mixture was heated to 50° C. for 24 h in a shaker bath. The solution was dialyzed for several days against double-distilled water. The keratin solution was then concentrated using AMICON with a 3 kDa cut-off.
# The reaction was incubated for 1 h30 min at room temperature and in the dark.
# The keratin was then diluted to 1 μg/mL in blocking buffer (3% BSA in tris-buffered saline (TBS) with 0.05% Tween 20).
# After incubation, the glasses were rinsed in successive washing solutions: TBS+0.1% Tween 20 and blocking buffer with 3% BSA in TBS+0.1% Tween 20, for 3 minutes in each solution.
# The imaging of the glasses was performed in Agilent G2565CA Microarray Scanner System. Three replicas of the each peptide incubation were performed and analyzed.
# [1] = Mechanical resistance test (Young modulus) of bleached human hair after direct application of peptide (Example 2); settings: peptide treatment after bleaching
# Method: The hair was supplied from International Hair Importers and Products, Inc. (New York). Hair fibers were pre-treated by bleaching. The formulation was tested in different hair types: • virgin hair washed, with the cuticle intact and absence of chemical damages; • hair after 8 bleaching treatments, at 50° C. in 0.1 M Na2CO3/NaHCO3 buffer, at pH=9, 10% H2O2, for 1 hour.
# The incorporation of the peptides was performed by direct application in the hair surface. The mechanical resistance tests were performed after the treatment of the hair with the peptide.
# The measurements of mechanical resistance were performed using a cell with 2.5 N maximum load and a deformation rate of 1.5 mm/min. Each hair was individually mounted in the tensile jig by means of a paper template with a fixed gauge length of 20 mm.
# [2] = Mechanical tests (Young modulus, maximum load, stretching) of relaxed (reduced) human hair after peptide treatment (Example 3)
# Method: The formulation was tested in different hair types: • virgin hair washed, with the cuticle intact and absence of chemical damages; • hair after reduction treatment, at 37° C. in phosphate buffer at pH=8, with 3M GndHCl and 0.05M DTT for 2 hours.
# For the treatment with the peptide SEQ ID NO: 412, concentrations of 0.01% (w/w) were used.
# [3] = Mechanical test (Young modulus) of bleached human hair treated with serum or mask, with and without peptide (Example 1); settings: formulations containing the peptide vs without peptide
# Method: The tests were performed with in human hair after 8 treatments of bleaching, at 50° C. in 0.1 M Na2CO3/NaHCO3 buffer, at pH=9, 10% H2O2, for 1 hour.
# Each of the formulations was tested with and without the peptide sequence ID NO:5, which contains in the sequence 15% of cysteine.
# The hair mask was applied to the hair after 8 bleaching treatments, being left to act for 15 minutes, mimicking the procedure indicated in commercial masks. Posteriorly, the hair was washed. The serum was applied to the hair after 8 bleaching treatments, being left to act for 1 hour at 37° C. Posteriorly, the hair was not washed, as in typical commercial procedures the serum should be applied in dry hair. The hair was also tested after 5 applications.
# After the treatment, mechanical tests were performed, using a cell with 2.5 N maximum load and a deformation rate of 1.5 mm/min. Each hair was individually mounted in the tensile jig by means of a paper template with a fixed gauge length of 20 mm.
Sequence,"Intensity level (average ± standard deviation), normalized (keratin)",further results
ASCVSLLCRP (listed as Homo sapiens) [SEQ.ID NO:179],0.990±0.014,–
CEPAICEPSC (listed as Homo sapiens) [SEQ.ID NO:432],1 and 1.000 ± 0.000,–
GGVCGPSPPC (listed as Homo sapiens) [SEQ.ID NO:409],–,Young modulus [1]: 5649±1022 MPa
CISSSCCPSCC (listed as Homo sapiens) [SEQ.ID NO:1108],1 and 1.000 ± 0.000,–
CGPSPPCITT (listed as Homo sapiens) [SEQ.ID NO:412],–,"hair stretching (average) ([2]; relaxed hair after peptide treatment): 72%; maximum load test, maximum of resistance ([2]; relaxed hair fiber after peptide treatment): 126 MPa; Young modulus (average) ([2]; relaxed hair fiber after peptide treatment at 0.01%): 4190 MPa"
SCCAPVYCCK (listed as Homo sapiens) [SEQ.ID NO:951],1 and 1.000 ± 0.000,–
CLPCLPAASC (listed as Homo sapiens) [SEQ.ID NO:75],1 and 1.000 ± 0.000,–
GVCGPSPPCI (listed as Homo sapiens) [SEQ.ID NO:5],–,mechanical resistance of the damaged hair [3]: increase in mechanical resistance
CQCSCCKPYCS (listed as Homo sapiens) [SEQ.ID NO:1131],1 and 1.000 ± 0.000,–
